Test results as given in ChEMBL document CHEMBL4831528, “Discovery of Novel Pterostilbene-Based Derivatives as Potent and Orally Active NLRP3 Inflammasome Inhibitors with Inflammatory Activity for Colitis” (J Med Chem, 2021).

Key:
[1] = tested on: L02; assay: Cytotoxicity against human L-02 cells incubated for 24 hrs by MTT assay; format: cell-based; conditions: L02, 24 h
[2] = molecular target: NACHT, LRR and PYD domains-containing protein 3 (Mus musculus) (UniProt Q8R4B8); assay: (§1) Inhibition of NLRP3 inflammasome activation in LPS-stimulated mouse J774A.1 cells assessed as inhibition of cell pyrolysis at 10 uM incubated for 1 hr followed by ATP addition and measured after 30 mins by Hoechst 33342/propidium iodide staining based high content screening method relative to control; conditions: J774.A1, time 1.5 hrs
[3] = molecular target: NACHT, LRR and PYD domains-containing protein 3 (Mus musculus) (UniProt Q8R4B8); assay: as §1, with “20” for “10”; conditions: J774.A1, time 1.5 hrs

Chain of NACHT, LRR and PYD domains-containing protein 3 (Mus musculus) (Q8R4B8 whole entry, the tested form may be a part): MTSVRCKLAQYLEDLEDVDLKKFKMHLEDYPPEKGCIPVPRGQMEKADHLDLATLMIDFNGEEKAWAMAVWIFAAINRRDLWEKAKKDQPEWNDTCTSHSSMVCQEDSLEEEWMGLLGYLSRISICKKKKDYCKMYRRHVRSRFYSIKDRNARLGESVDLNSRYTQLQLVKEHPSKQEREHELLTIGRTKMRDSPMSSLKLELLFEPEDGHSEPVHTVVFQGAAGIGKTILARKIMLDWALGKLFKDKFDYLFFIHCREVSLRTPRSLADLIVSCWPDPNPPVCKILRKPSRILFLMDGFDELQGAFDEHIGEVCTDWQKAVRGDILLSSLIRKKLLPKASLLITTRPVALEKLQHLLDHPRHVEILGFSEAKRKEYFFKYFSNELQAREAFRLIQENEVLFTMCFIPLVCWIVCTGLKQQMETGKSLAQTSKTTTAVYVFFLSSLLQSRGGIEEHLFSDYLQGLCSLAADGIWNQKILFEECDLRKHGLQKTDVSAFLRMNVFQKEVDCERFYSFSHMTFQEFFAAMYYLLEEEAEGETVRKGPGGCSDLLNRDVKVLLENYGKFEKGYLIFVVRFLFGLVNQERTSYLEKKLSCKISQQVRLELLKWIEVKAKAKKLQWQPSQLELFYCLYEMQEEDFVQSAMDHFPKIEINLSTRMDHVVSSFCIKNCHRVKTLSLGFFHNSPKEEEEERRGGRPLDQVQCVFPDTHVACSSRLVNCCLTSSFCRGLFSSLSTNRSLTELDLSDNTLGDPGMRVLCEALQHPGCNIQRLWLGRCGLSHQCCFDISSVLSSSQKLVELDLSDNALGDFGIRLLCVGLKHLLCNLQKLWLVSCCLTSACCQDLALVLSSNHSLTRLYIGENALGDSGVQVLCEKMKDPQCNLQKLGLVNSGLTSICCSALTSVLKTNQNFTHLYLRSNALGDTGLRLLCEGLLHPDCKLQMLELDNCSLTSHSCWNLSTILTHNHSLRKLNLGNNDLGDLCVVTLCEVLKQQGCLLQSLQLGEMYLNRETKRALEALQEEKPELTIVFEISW

With COc1cc(/C=C/c2ccc(OCC(=O)NCCc3ccccc3)cc2)c(/C=C/[N+](=O)[O-])c(OC)c1 the IC50 [1] was greater than 100 µM, the inhibition [2] was 26.2% and the inhibition [3] was 46.2%.
For COc1cc(/C=C/c2ccc(NC(=O)C3CCCC3)cc2)c(/C=C/[N+](=O)[O-])c(OC)c1, the IC50 [1] was greater than 100 µM and the inhibition [2] was 45.7%.
For COc1cc(/C=C/c2ccc(OCc3ccc(C(F)(F)F)cc3)cc2)c(/C=C/[N+](=O)[O-])c(OC)c1, the IC50 [1] was greater than 100 µM, the inhibition [2] was 17.9% and the inhibition [3] was 23.7%.
C=CCCCOc1ccc(/C=C/c2cc(OC)cc(OC)c2/C=C/[N+](=O)[O-])cc1 was tested, and the IC50 [1] was greater than 100 µM, the inhibition [2] was 26.8% and the inhibition [3] was 33.5%.
CCCC(=O)Nc1ccc(/C=C/c2cc(OC)cc(OC)c2/C=C/[N+](=O)[O-])cc1 gave an IC50 [1] greater than 100 µM and an inhibition [2] of 48.9%.
COc1cc(/C=C/c2ccc(NC(C)=O)cc2)c(/C=C/[N+](=O)[O-])c(OC)c1 was tested, and the IC50 [1] was greater than 100 µM and the inhibition [2] was 56.2%.
Work on C/C=C/C(=O)Nc1ccc(/C=C/c2cc(OC)cc(OC)c2/C=C/[N+](=O)[O-])cc1 yielded an IC50 [1] greater than 100 µM and an inhibition [2] of 60.7%.
In the case of CCCCC(=O)Nc1ccc(/C=C/c2cc(OC)cc(OC)c2/C=C/[N+](=O)[O-])cc1, the IC50 [1] is reported as greater than 100 µM and the inhibition [2] is reported as 36%.
For COc1cc(/C=C/c2ccc(OCC(=O)NCC3CCOCC3)cc2)c(/C=C/[N+](=O)[O-])c(OC)c1, the IC50 [1] was greater than 100 µM, the inhibition [2] was 15.3% and the inhibition [3] was 25.3%.
With CCC(=O)Nc1ccc(/C=C/c2cc(OC)cc(OC)c2/C=C/[N+](=O)[O-])cc1 the IC50 [1] was greater than 100 µM and the inhibition [2] was 50.7%.
In the case of COc1cc(NC(=O)COc2ccc(/C=C/c3cc(OC)cc(OC)c3/C=C/[N+](=O)[O-])cc2)cc(OC)c1, the IC50 [1] is reported as greater than 100 µM, the inhibition [2] is reported as 20.1% and the inhibition [3] is reported as 39.8%.
Compound COc1cc(/C=C/c2ccc(NC(=O)CC(C)(C)C)cc2)c(/C=C/[N+](=O)[O-])c(OC)c1 has an IC50 [1] greater than 100 µM and an inhibition [2] of 9.89%.
COCCCOc1ccc(/C=C/c2cc(OC)cc(OC)c2)cc1 gave an IC50 [1] greater than 100 µM, an inhibition [2] of 17.1% and an inhibition [3] of 20.2%.
COc1cc(/C=C/c2ccc(OCC(=O)NCc3ccc(Cl)cc3)cc2)c(/C=C/[N+](=O)[O-])c(OC)c1 showed an IC50 [1] greater than 100 µM, an inhibition [2] of 30.7% and an inhibition [3] of 49.6%.
COc1ccc(NC(=O)COc2ccc(/C=C/c3cc(OC)cc(OC)c3/C=C/[N+](=O)[O-])cc2)cc1 gave an IC50 [1] greater than 100 µM, an inhibition [2] of 12.9% and an inhibition [3] of 15.1%.
COc1cc(/C=C/c2ccc(OCC(=O)NCc3ccccc3)cc2)c(/C=C/[N+](=O)[O-])c(OC)c1 was tested, and the IC50 [1] was greater than 100 µM, the inhibition [2] was 27.9% and the inhibition [3] was 57.9%.
Compound COc1cc(/C=C/c2ccc(OCC(=O)NCc3ccc(C#N)cc3)cc2)c(/C=C/[N+](=O)[O-])c(OC)c1 has an IC50 [1] greater than 100 µM, an inhibition [2] of 34.4% and an inhibition [3] of 59.9%.
Compound C=CC(=O)Nc1ccc(/C=C/c2cc(OC)cc(OC)c2/C=C/[N+](=O)[O-])cc1 has an IC50 [1] greater than 100 µM and an inhibition [2] of 71.2%.
For CCCC(C)C(=O)Nc1ccc(/C=C/c2cc(OC)cc(OC)c2/C=C/[N+](=O)[O-])cc1 (stereo unspecified), the IC50 [1] was greater than 100 µM and the inhibition [2] was 41%.
With C=CCCCOc1ccc(/C=C/c2cc(OC)cc(OC)c2-c2cnn[nH]2)cc1 the IC50 [1] was greater than 100 µM.
For COCC(=O)Nc1ccc(/C=C/c2cc(OC)cc(OC)c2/C=C/[N+](=O)[O-])cc1, the IC50 [1] was greater than 100 µM and the inhibition [2] was 60%.
COc1cc(/C=C/c2ccc(NC(=O)OC(C)(C)C)cc2)c(/C=C/[N+](=O)[O-])c(OC)c1 showed an IC50 [1] greater than 100 µM and an inhibition [2] of 24%.
Compound COc1cc(/C=C/c2ccc(NC(=O)C(C)C)cc2)c(/C=C/[N+](=O)[O-])c(OC)c1 has an IC50 [1] greater than 100 µM and an inhibition [2] of 69%.
With COc1cc(/C=C/c2ccc(OCc3ccc(C(F)(F)F)cc3)cc2)c(-c2cnn[nH]2)c(OC)c1 the IC50 [1] was greater than 100 µM and the inhibition [3] was 3.25%.
In the case of COc1cc(/C=C/c2ccc(NC(=O)CCl)cc2)c(/C=C/[N+](=O)[O-])c(OC)c1, the IC50 [1] is reported as 42.6 µM and the inhibition [2] is reported as 90%.
Work on COc1cc(/C=C/c2ccc(NC(=O)COC(C)=O)cc2)c(/C=C/[N+](=O)[O-])c(OC)c1 yielded an IC50 [1] of 58.7 µM and an inhibition [2] of 61%.
